Literature values as cited in US20240335440A1, “COMBINATION THERAPY COMPRISING A PKC INHIBITOR AND A C-MET INHIBITOR” (IDEAYA BIOSCIENCES, INC., priority 2021, published 2024).
Like-named read-outs stand apart in the source and are kept apart here. Marks after values point to notes of the source that are not given here.

Experiments:
[1] = system: metastatic uveal melanoma (MUM); conditions: First-Line MUM (n = 31); oral capsules QD
[2] = system: metastatic uveal melanoma (MUM); conditions: Second-Line + MUM (n = 127)

Compound	Tolerability (Grade ≥3 Drug-related AE) [1] [%]	Tolerability (Grade ≥3 Drug-related AE) ([2]; HLA-A2-0201 patients, IV infusion weekly) [%]	% Pts with tumor shrinkage ([2]; independent review) [%^#]	Overall response rate by RECIST 1.1 ([2]; independent review) [%^#]	Progression free survival (mPFS) ([2]; independent review) [mo.^#]
COc1cc2nccc(Oc3ccc(NC(=O)C4(C(=O)Nc5ccc(F)cc5)CC4)cc3)c2cc1OC [Cabozantinib]	51.6	–	–	–	–
Tebentafusp: HLA-A2-0201 bi-specific AB, IV infusion (weekly), IMCgp100-102 study	–	46.5	44	4.7	2.8
